A short description of data set [1]: UV-Vis spectrum of HPTS as a function of pH, pH response range. To be noted: RGB detectors with maximum sensitivity at 460 nm/520 nm/630 nm. Type of data set: physicochemical. An excerpt: An example of modification of 8-hydroxypyrene-1,3,6-trisulfonic acid as its sodium salt is shown below. The 8-hydroxypyrene-1,3,6-trisulfonic acid can also be modified as a salt of a cation other than sodium, such as potassium or ammonium. This compound is suitable as a pH sensitive probe for pH range of 7.0-8.0 for red, green and blue combination photodiode (RGB) detectors with maximum sensitivity at 460 nm/520 nm/630 nm.
The UV-Vis spectrum of HPTS as a function of pH is shown in FIG. 7, while the pH response range for this dye at 454 nm is shown in FIG. 8.

The nature of data set [2]: SPD derivative UV-Vis spectral and chemical properties (Table 1). It is filed as physicochemical. To be noted: for λ1, nm (SPD^−1 form): pH sensitive wavelength of SPD^−1. An excerpt: The HA and A^− concentrations are related by the Henderson-Hasselbalch equation: pH=pKa+log[A^−]/[H—A] where Ka is the acid dissociation constant, pKa is −log Ka, and [A^−] and [HA] are the concentrations of dissociated and undissociated dye acid form, respectively.
Such compounds are commonly used as pH sensitive indicators for determination of pH of aqueous solutions. […] The structure of suitable SPDs and their conjugate bases are shown generically below, and their spectral and chemical properties are reported in Table 1.
Unmodified SPDs have been used for the preparation of pH sensitive indicators adsorbed on the surface of suitable polymeric materials, such as cellulose based materials. […] In general, substitution with electron acceptor substituents (e.g., Cl, Br in the C2/C5 positions) results in a pKa shift to a lower pH range relative to PR, and substitution with electron donor substituents (e.g., C1-C3 alkyl in the C2, C4 and C5 positions) results in a pKa shift to a higher pH range. […] Examples of such SPDs include bromocresol purple and bromothymol blue.
Measurement of absorbance at specific wavelengths allows for the determination of the concentrations of the acidic and basic forms of the dye. These wavelengths are typically selected based upon the absorbance maxima for each specific dye, although other wavelengths can be employed albeit with diminished sensitivity.

The conditions of data set [3]: SPD^−1/SPD^−2 transition, cited from earlier work.
The mark [4] stands for this setting: pH sensitive wavelength of SPD^−2.

Where two headings read alike, the source gives them in different places.

On to `O=S(=O)(O)c1cc(O)c2ccc3c(S(=O)(=O)O)cc(S(=O)(=O)O)c4ccc1c2c34` [8-hydroxypyrene-1,3,6-trisulfonic acid], for which the “pH range for which suitable as pH sensitive probe” value in data set [1] is 7.0-8.0.
Consider `Cc1c(C2(c3cc(Br)c(O)c(Br)c3C)OS(=O)(=O)c3ccccc32)cc(Br)c(O)c1Br` [Bromocresol Green (BrCrG), Bromocresol Green], for which the “λ1, nm (SPD^−1 form)” value in data set [2] is listed as 432 nm. Also, the “λ2, nm (SPD^−2 form)” value in data set [2] (setting [4]) was roughly 614 nm. The “pKa* SPD^−1/SPD^−2” value in data set [3] was 4.7.
On to `Cc1cc(C2(c3cc(C)c(O)c(Br)c3)OS(=O)(=O)c3ccccc32)cc(Br)c1O` [Bromocresol Purple (BrCrP), Bromocresol Purple], for which, in data set [2], the “λ1, nm (SPD^−1 form)” value came out at 432 nm. Further, the “λ2, nm (SPD^−2 form)” value in data set [2] (setting [4]) is 589 nm. Besides, the “pKa* SPD^−1/SPD^−2” value in data set [3] is on record as 6.3.
In the case of `O=S1(=O)OC(c2cc(Br)c(O)c(Br)c2)(c2cc(Br)c(O)c(Br)c2)c2ccccc21` [Bromophenol Blue], in data set [2], the “λ1, nm (SPD^−1 form)” value was determined as 436 nm. For the same compound, in data set [2] (setting [4]), the “λ2, nm (SPD^−2 form)” value amounted to 591 nm. Also, the “pKa* SPD^−1/SPD^−2” value in data set [3] is 4.1.
As to `Cc1c(C2(c3cc(C(C)C)c(O)c(Br)c3C)OS(=O)(=O)c3ccccc32)cc(C(C)C)c(O)c1Br` [Bromothymol Blue], the “λ1, nm (SPD^−1 form)” value in data set [2] worked out at 427 nm. In addition, in data set [2] (setting [4]), the “λ2, nm (SPD^−2 form)” value is listed as 602 nm. Besides, in data set [3], the “pKa* SPD^−1/SPD^−2” value was 7.1.
Consider `O=S1(=O)OC(c2ccc(O)c(Cl)c2)(c2ccc(O)c(Cl)c2)c2ccccc21` [Chlorophenol Red (ClPR), Chlorophenol Red], for which the “λ1, nm (SPD^−1 form)” value in data set [2] worked out at 436 nm. Further, the “λ2, nm (SPD^−2 form)” value in data set [2] (setting [4]) is listed as 575 nm. Also, the “pKa* SPD^−1/SPD^−2” value in data set [3] was 6.7.
With `Cc1cc(C2(c3ccc(O)c(C)c3)OS(=O)(=O)c3ccccc32)ccc1O` [Cresol Red (CR), Cresol Red], the “λ1, nm (SPD^−1 form)” value in data set [2] is reported as 430 nm.
In the case of `Cc1c(C2(c3cc(C(C)C)c(O)c(CN(CC(=O)[O-])CC(=O)[O-])c3C)OS(=O)(=O)c3ccccc32)cc(C(C)C)c(O)c1CN(CC(=O)[O-])CC(=O)[O-].[Na+].[Na+].[Na+].[Na+]` [Methylthymol Blue], the “λ1, nm (SPD^−1 form)” value in data set [2] worked out at 442 nm. The “λ2, nm (SPD^−2 form)” value in data set [2] (setting [4]) was 614 nm. For the same compound, the “pKa* SPD^−1/SPD^−2” value in data set [3] is listed as 6.0-13.0.
In the case of `O=S1(=O)OC(c2ccc(O)cc2)(c2ccc(O)cc2)c2ccccc21` [Phenol Red (PR), Phenol Red], the “λ1, nm (SPD^−1 form)” value in data set [2] is on record as 431 nm. For the same compound, the “λ2, nm (SPD^−2 form)” value was 557 nm in data set [2] (setting [4]) and “approximately 557 nm” in data set [2] (pH sensitive wavelength of SPD^−2, listed as PR). Moreover, the pKa (Table 3, PR derivatives) is recorded as 7.4. The “λ1, nm” value (Table 3, PR derivatives) turned out to be 431 nm. Besides, the “λ2, nm” value (Table 3, PR derivatives) is listed as 557 nm. Also, the “λ1^pH 6/pH 9 Abs ratio” value (calculated as OD 430 nm pH 6.0/OD 430 nm pH 9.0) is 5.1. In addition, the “pKa* SPD^−1/SPD^−2” value in data set [3] is 7.4; in data set [3] (listed as Phenol red (PR)), “approximately 7.4”.
Turning to `Cc1cc(O)c(C(C)C)cc1C1(c2cc(C(C)C)c(O)cc2C)OS(=O)(=O)c2ccccc21` [Thymol Blue], the “λ1, nm (SPD^−1 form)” value in data set [2] is recorded as 432 nm. Further, the “λ2, nm (SPD^−2 form)” value in data set [2] (setting [4]) came out at 595 nm. Also, in data set [3], the “pKa* SPD^−1/SPD^−2” value is given as 8.9.
On to `Cc1cc(C2(c3cc(C)c(O)cc3C)OS(=O)(=O)c3ccccc32)c(C)cc1O` [Xylenol Blue], for which the “λ1, nm (SPD^−1 form)” value in data set [2] came out at 436 nm. Besides, the “λ2, nm (SPD^−2 form)” value in data set [2] (setting [4]) is 594 nm. The “pKa* SPD^−1/SPD^−2” value in data set [3] is reported as 8.5.
Take `Cc1cc(C2(c3cc(C)c(O)c(CN(CC(=O)O)CC(=O)O)c3)OS(=O)(=O)c3ccccc32)cc(CN(CC(=O)O)CC(=O)O)c1O` [Xylenol Orange]: the “λ1, nm (SPD^−1 form)” value in data set [2] is on record as 436 nm. Besides, the “λ2, nm (SPD^−2 form)” value in data set [2] (setting [4]) is 583 nm. Moreover, the “pKa* SPD^−1/SPD^−2” value in data set [3] is 6.0-11.7.
`Cc1cc(O)ccc1C1(c2ccc(O)cc2C)OS(=O)(=O)c2ccccc21` [m-Cresol Purple (mCrP), m-Cresol Purple]: the “λ1, nm (SPD^−1 form)” value in data set [2] is given as 432 nm. In data set [2] (setting [4]), the “λ2, nm (SPD^−2 form)” value stood at 578 nm. The “pKa* SPD^−1/SPD^−2” value in data set [3] is given as 8.3.

(Values after patent publication US12203909B2, “Compositions for conjugating a sulfonephthalein dye to a substrate” (priority 2018, dated 2025).)
